Values quoted from earlier work, collected in patent US20230022721A1, “COMPOSITIONS AND METHODS FOR INHIBITION AND INTERRUPTION OF BIOFILM FORMATION” (DENTSPLY SIRONA Inc., priority 2016, published 2023).

How the values were obtained:
[1] = tested on: Bacteria: S. aureus; P. aeruginosa; E. coli
[2] = tested on: Bacteria: E. coli; S. aureus; S. typhimurium
[3] = tested on: Fungi: C. albicans; A. niger
[4] = tested on: Bacteria: Gram-positive bacteria; settings: vs model compound
[5] = tested on: Bacteria: P. aeruginosa; Staphylococcus spp.

Compound: C=C(C)C(=O)OCC(O)CSc1nnc(C)s1 (centres unmarked)
- Comparison of Polymers with Monomer [1]: The homopolymer is more effective than the monomer.^[8]

Compound: C=CC(=O)Oc1ccc(Cl)c2cccnc12
- Comparison of Polymers with Monomer [2]: The homopolymer and the copolymers with acrylamide are both less effective than the monomer.^[13]

Compound: Cc1cc(NS(=O)(=O)c2ccc(N3C(=O)C=CC3=O)cc2)no1
- Comparison of Polymers with Monomer [3]: The homopolymer is more effective than the monomer at all concentrations.^[6]

Compound: C=Cc1ccc(C[S+]2CCCC2)cc1
- Comparison of Polymers with Monomer [4]: The homopolymer is more effective than the corresponding model compound (p- ethylbenzyl tetramethylene sulforium tetrafluoroborate).

Compound: C=CC(=O)Oc1cc(Cl)ccc1Oc1ccc(Cl)cc1Cl
- Comparison of Polymers with Monomer [5]: The homopolymer and copolymers with methyl methacrylate, styrene are all less effective than the monomer.^[10]
